The text below walks through data of patent US20070117842A1, “Polymorph of 4-[3-chloro-4-(cyclopropylaminocarbonyl)aminophenoxy]-7-methoxy-6- quinolinecarboxamide and a process for the preparation of the same” (priority 2003, published 2007).

Values after ≈ are worked out from the molar mass of the structure shown.

The subject of data set [1] is small cell lung cancer cell line H-526 expressing c-Kit kinase. The data set is described as follows: Effect on cell proliferation stimulated by SCF. The data set is classed as cell-based. Particulars: Homo sapiens, NCI-H526; H-526 cells, SCF stimulation, 7th day, Cell Counting Kit-8; read-out: IC50 (concentration required for 50% inhibition of the cell proliferation). The method, then: After culturing, H-526 cells were washed with PBS three times and were suspended in an RPMI1640 medium containing 0.1% BSA (Sigma Corporation) (hereinafter abbreviated as “BSA-RPMI1640”) at 1.0×10^5 cells/ml. […] After color development, the absorbance of each well was determined using a MTP-32 plate reader (Colona Electric Co., Ltd.) at a measuring wavelength of 450 nm and at a reference wavelength of 660 nm. The absorbance of each well was subtracted by the absorbance of the well without addition of SCF, and then the ratio of the absorbance of the well with addition of the test substance to the ratio of the absorbance of the well without addition of the test substance was determined. This ratio was used to calculate the concentration of the test substance required for 50% inhibition of the cell proliferation (IC50).
A general note: Formazan colour is commonly taken as a measure of viable cells.

Data set [2] in a line: Hygroscopicity test by microbalance method. The data set is classed as physicochemical. The conditions noted are these: 25° C. The method, then:
(Hygroscopicity Test by Microbalance Method)
The higroscopicities of the crystals obtained in Examples 1d and 2d were evaluated by microbalance method. An apparatus and conditions employed were as follows.
Apparatus: Integrated microbalance system MB 300W (VTI Co.)
Relative humidity step: 5 to 95 by 5
Equilibrium Criteria: 0.0050 wt % (5 minutes)
Maximum equilibrium time: 120 minutes
The results of measuring the higroscopicities of the crystals obtained in Examples 1d and 2d by microbalance method are shown in FIGS. 13 and 14, respectively. As is seen from the results shown in these figures, within the range of 5-95% of relative humidity, the polymorph (A) gave a weight change of 1% and the polymorph (B) gave that of 1.5%.

Data set [3] can be described thus: Solid stability test (1 month storage; appearance, water content, HPLC purity and residual ratio, powder X-ray diffraction). The data set is classed as physicochemical. Particulars: for impurity / remaining percent: HPLC; for water content: Karl Fischer method. The method, then: (Solid Stability Test) The solid stabilities of the crystal obtained in Examples 1d and 2d were evaluated. […] The water content measurement and the powder X-ray diffraction measurement were carried out by the same method as described in the hygroscopicity test by the dessiccator method. Further, the purity test and the residual ratio (percent) measurement by HPLC were carried out by the same method as described above, except for the condition that the column temperature was 35° C. In this connection, the residual ratio (percent) (measurement by HPLC) was defined as stated bellow by using the crystal stored under the condition C as the standard and its solution as the standard solution. Remaining percent (%)=[(Peak area of the sample solution)×(Weighed amount of the standard: in terms of a dehydrate (mg))]×100/[(Peak area of the standard solution)×(Weighed amount of the sample: in terms of a dehydrate (mg))] [table]

Data set [4] in a line: Crystal transition between polymorphs in heated suspension. The data set is classed as physicochemical. Particulars: 60° C., 3 hours, listed as polymorph (B). On the procedure:
These suspensions were filtered to collect 4-(3-chloro-4-(cyclopropylaminocarbonyl)aminophenoxy)-7-methoxy-6-quinolinecarboxamide (184 to 266 mg).
These suspensions were filtered to collect 4-(3-chloro-4-(cyclopropylaminocarbonyl)aminophenoxy)-7-methoxy-6-quinolinecarboxamide (141 to 256 mg).

Data set [5] in a line: Solubility test (pH 3, Britton Robinson buffer). Particulars: for solubility (concentration in filtrate): pH 3 Britton Robinson buffer, 25-26° C.; for pH of the filtrate: solubility test. The data set is classed as physicochemical. The method, then:
(Solubility Test) The solubilities (pH 3) of the crystals obtained in Examples 1d and 2d were evaluated by the following method. About 3 mg of the crystals obtained in Examples 1d and 2d were weighed and each of them was put in a 10 mL screw-capped transparent test tube. 5 mL of a buffer solution (Britton Robinson buffer, pH 3.091, ionic strength I=0.3) was added to each of the test tubes to prepare the test solutions. The test tubes were wrapped with aluminum foil to shield from light, and shaken by a shaker (MS-1 Iuchi Seieido) in the following conditions. Temperature: 25-26° C. (a temperature in a laboratory) Shaking frequency: 150 times/minute Shaking time: 3 hours and 5 hours Respective sample solutions after shaking were filtered ([…], Sample LCR13-LG, Millipore Co.), and each 1 mL of the initial filtrate was discarded. Each of accurately pipetted 1 mL of the filtrates was put in a 10 mL test tube, to which accurately pipetted 1 mL of a mixed solution of water/acetonitrile (1:1 (v/v)) was added to prepare a solution for the HPLC analysis. The HPLC conditions were as follows. A standard solution for the HPLC analysis were prepared as follows. About 10 mg of the crystals obtained in Example 2d was accurately weighed, to which a mixed solution of water/acetonitrile/ammonium acetate (100:100:0.1, v/v/w) was added to give accurate 100 mL to prepare a stock standard solution. Accurately pipetted 5 mL of the stock control solution was added with a mixed solution of water/acetonitrile/ammonium acetate (100:100:0.1, v/v/w) to give accurate 25 mL to prepare the standard solution for the HPLC analysis. Regarding a blank solution, a mixed solution of water/acetonitrile/ammonium acetate (100:100:0.1, v/v/w) was used. The standard solution and respective filtrates were analyzed by HPLC to measure concentrations (mg/mL) of 4-(3-chloro-4-(cyclopropylaminocarbonyl)aminophenoxy)-7-methoxy-6-quinolinecarboxamide in respective filtrates according to the following equation. Concentration (mg/mL)=(Concentration in the standard solution, mg/mL)×[(Peak area in each filtrate)×2/(Peak area in the standard solution)] As is evident from the results, there was no significant difference in the solubility at pH 3 between the polymorphs (A) and (B).

The nature of data set [6]: Hygroscopicity test by a desiccator method. The data set is classed as physicochemical. The conditions noted are these: for water content: Karl Fischer method. On the procedure: (Hygroscopicity Test by a Desiccator Method) The hygroscopicities of the crystals obtained in Examples 1d and 2d were evaluated by a desiccator method. […] Weighing bottles (in opened caps) were used for containers, and MIR-552 (Sanyo) was used for a storage apparatus. [table] The powder X-ray diffraction analysis was carried out under the following conditions. The water content was measured (by the Karl Fischer method) by using the following apparatus and reagents.

Setting [7] is: condition C: −20° C., brown screw vial, closed, 1 month.
[8] abbreviates: condition D: 25° C., 1000lx, shading with aluminum foil, quartz tube, closed, 1 month.
Setting [9] is: condition E: 25° C., 1000lx, quartz tube, closed, 1 month.
Where [10] appears, read: condition F: 40° C., 75% RH, brown screw vial, open, 1 month.
Where [11] appears, read: condition G: 60° C., brown screw vial, closed, 1 month.
Setting [12] is: condition A: 25° C., 75% relative humidity, stored 1 week.
Setting [13] is: condition B: 25° C., 93% relative humidity, stored 1 week.
[14] abbreviates: desiccator method, 25° C., 75% or 93% relative humidity, 1 week.

In the case of `CCCNC(=O)Nc1ccc(Oc2ncnc3cc(OC)c(OC)cc23)cc1Cl` [KRN633, reference compound], the IC50 in data set [1] is 301 nM.
Turning to `COc1cc2nccc(Oc3ccc(NC(=O)NC4CC4)c(Cl)c3)c2cc1C(N)=O` [Example 2d, 4-(3-chloro-4-(cyclopropylaminocarbonyl)aminophenoxy)-7-methoxy-6-quinolinecarboxamide], the hygroscopicity entry in data set [2] (microbalance method, 5-95% relative humidity) is listed as “no perceivable hygroscopisity”; in data set [6] (setting [14]), “no perceivable hygroscopicitiy”. The same molecule registered a weight change in data set [2] (within the range of 5-95% of relative humidity, listed as polymorph (B)) of 1.5%. The appearance entry in data set [3] (setting [7]), in data set [3] (setting [8]), in data set [3] (setting [9]), in data set [3] (setting [10]), in data set [3] (setting [11]) and in data set [3] (prior to storage) was “pale brownish” throughout. Besides, the appearance entry in data set [6] (setting [12]), in data set [6] (setting [13]) and in data set [6] (prior to storage) was “pale brownish” in each case. The impurity in data set [3] (setting [7]) was 1.55%; in data set [3] (setting [8]), 1.54%; in data set [3] (setting [9]), 1.55%; in data set [3] (setting [10]) it was 1.54%; in data set [3] (setting [11]), 1.53%; in data set [3] (prior to storage), 1.53%. Besides, the remaining percent result in data set [3] (condition C: −20° C., brown screw vial, closed, 1 month, condition C is the standard) is listed as “(100) %”; in data set [3] (condition D: 25° C., 1000lx, shading with aluminum foil, quartz tube, closed, 1 month, vs condition C standard), 101.8%; in data set [3] (condition E: 25° C., 1000lx, quartz tube, closed, 1 month, vs condition C standard) it was 100.5%; in data set [3] (condition F: 40° C., 75% RH, brown screw vial, open, 1 month, vs condition C standard), 100.4%; in data set [3] (condition G: 60° C., brown screw vial, closed, 1 month, vs condition C standard), 101.3%. Also, the water content in data set [3] (setting [7]) came out at 0.4 wt %; in data set [3] (setting [8]), 0.3 wt %; in data set [3] (setting [9]), 0.3 wt %; in data set [3] (setting [10]), 0.4 wt %; in data set [3] (setting [11]), 0.5 wt %; in data set [3] (prior to storage) it was 0.5 wt %. Further, the water content in data set [6] (setting [12]), in data set [6] (setting [13]) and in data set [6] (prior to storage) was 0.5 wt % each time. Further, in data set [3] (stored for 1 month, any storage conditions), the “change on storage (solid stability)” value is given as “no change was observed”. Also, in data set [4] (300 mg in DMSO (1.7 mL) and 33% (v/v) acetone-water (0.17, 0.34, 0.51 or 0.85 mL)), the “crystal form after suspension” value was “all of them remained the polymorph (B)”. Moreover, the “dissolution in DMSO” value in data set [4] (300 mg in DMSO (1.7 mL), without 33% acetone-water) was “most of the polymorph (B) dissolved”. Moreover, the “solubility (concentration in filtrate)” value came to 62 µg/mL (≈ 145 µM) in data set [5] (shaking time 3 hours) and 54 µg/mL (≈ 127 µM) in data set [5] (shaking time 5 hours). The “pH of the filtrate” value is on record as 3.109 in data set [5] (shaking time 3 hours) and 3.106 in data set [5] (shaking time 5 hours). Besides, the crystal transition result in data set [6] (setting [14]) was “no perceivable crystal transition”.
